From patent publication US20110136791A1, “COMBINATION OF A NICOTINIC RECEPTOR PARTIAL AGONIST AND OF AN ACETYLCHOLINESTERASE INHIBITOR, PHARMACEUTICAL COMPOSITION CONTAINING SAME AND USE THEREOF IN THE TREATMENT OF COGNITIVE DISORDERS” (priority 2008, published 2011) come the findings set out here.

One assay relates to rats with no deficit. Put plainly: Test for spontaneous forgetting in rats with no deficit (object recognition test, visual episodic memory). The assay is classed as in vivo. Particulars: rat; for Exploration time, familiar object (recalling session) / Exploration time, new object (recalling session) / Recognition index (new/(new + familiar)): p.o. 60 min before each session, 24 h forgetting period, group 2: 0.1 mg/kg, group 3: rivastigmine 0.03 mg/kg, group 4: 0.01 + 0.03 mg/kg; for Exploration time, familiar object (recalling session) / Exploration time, new object (recalling session): 3 min test; for Discrimination between the familiar object and the new object during the recalling session (in words): p.o., inactive doses, 24 hours after the learning session. Here is the method: 1. Test for Spontaneous Forgetting in Rats with No Deficit
1.) Accustomization phase: In this protocol, the animals are first subjected to a session of accustomization to the environmental context (a wooden chamber of 65×45×45 cm) for a period of 2 minutes. The time spent in active locomotion is measured using a timer. 2.) Learning phase: 24 hours later, two exactly identical objects (either metal triangles or pyramids made of Lego) are placed in the experimental device. Each rat is placed in the middle of the chamber, the nose against the wall opposite that where the objects/stimulus are located. The pairs of objects presented are alternated equitably in each of the groups of rats. The animals are left in the experimental chamber until they reach a period of exploration of the two objects equal to 20 seconds, out of a maximum period of 3 minutes. As soon as the 20 seconds of exploration are reached, the rat is put back in its housing cage. […] 3.) Recalling session: The recalling session takes place after a forgetting period of 24 h for all the groups. The rats are confronted with a pair of objects consisting of the object encountered during the learning phase and an unknown object. The rats are placed in the same way as for the learning session.
This test lasts 3 minutes, during which the time spent exploring each of the 2 objects is measured.
Conversely, if the animal has forgotten the familiar object, the times spent exploring the new object and the familiar object will be similar.
For the learning and recalling sessions, the exploring of an object is counted if the animal orients its nose toward the object, inside a perimeter of 2 centimeters around said object, or if it touches it with its nose or with its feet. If the rat moves around the object or sits on it, these behaviors are not considered to be exploratory.
(§1) The raw data are expressed in seconds.
The test compounds are administered orally 60 minutes (rat study) before each of the three sessions of the protocol.
Four experimental groups are formed, said groups receiving, respectively:
During the recalling session, 24 hours after the learning session, the times spent exploring the two objects, expressed in seconds, and the recognition index (time spent exploring the new object/total time spent exploring the new and familiar objects) are measured. • Similar exploration times with respect to the familiar object and to the new object reflect the fact that the familiar object has been forgotten, and therefore that there is a visual episodic memory deficit.
Conversely, a longer exploration time for the new object than for the familiar object reflects significant recollection of the familiar object and therefore an improvement in visual episodic memory. • A relatively low recognition index reflects the fact that the familiar object has been forgotten, and therefore that there is a visual episodic memory deficit.
Conversely, a high recognition index reflects significant recollection of the familiar object, and therefore an improvement in visual episodic memory.
The above doses are expressed in base equivalent.

Assay [1] concerns CD1-strain mice injected ICV with Aβ25-35 peptide. Put plainly: Test of short-term visual episodic memory deficit induced by ICV injections of β-amyloid protein 25-35 in mice (object recognition). As to conditions: Aβ25-35 mice; for Effect on short-term recall performance levels (in words): 0.1 mg/kg each, intraperitoneally; for Exploration time, familiar object (recalling session) / Exploration time, new object (recalling session) / Recognition index (new/(new + familiar)): intraperitoneally 60 min before each session, 1 hour forgetting period, each active 0.1 mg/kg (base equivalent); for Exploration time, familiar object (recalling session) / Exploration time, new object (recalling session): 5 min test. In kind it is in vivo, mouse. The method, then: 2. Test of short-term visual episodic memory deficit induced by intracerebroventricular (ICV) injections of β-amyloid protein 25-35 in mice
The Aβ25-35 peptide fragment contains the 11 amino acids necessary and sufficient for inducing neurological toxicity.
The Aβ25-35 amyloid peptide is dissolved in distilled water at a final concentration of 3 mg/ml. It is then incubated at 37° C. for 4 days in order to form aggregates of toxic peptide. The control animals receive the scrambled peptide, consisting of the same amino acids, but organized according to a random sequence.
The peptide is injected intracerebroventricularly into CD1-strain mice anaesthetized with isoflurane. A microsyringe fitted with a 28-gauge needle 3 mm long is used. The needle is inserted unilaterally, 1 mm to the right of the central line equidistant from each eye and at an equal distance between the axis of the eyes and the axis of the ears. 3 μl of the aggregated peptide are injected over a period of one minute. The mice are used for the behavioral tests between 6 and 14 days after the intracerebral injection.
1.) Accustomization phase: In this protocol, the mice are first subjected to a session of accustomization to the environmental context (light grey PVC chain of 52×52×40 cm, illumination at 6 Lux) for a period of 10 minutes. The time spent in active locomotion is measured using a timer. 2.) Learning phase: 24 hours later, two exactly identical objects (either metal triangles (5.5×3.3 cm), or a square red Lego brick (3.0×3.0×3.0 cm)) are placed in the experimental device. Each mouse is placed in the middle of the chamber, the nose against the wall opposite that where the objects/stimulus are located. The pairs of objects presented are alternated equitably in each of the groups of mice. The animals are left in the experimental chamber until they reach a time spent exploring the two objects equal to 10 seconds, out of a maximum period of 3 minutes. As soon as the 10 seconds of exploration are reached, the mouse is put back in its housing cage.
3.) Recalling session: The recalling session takes place after a forgetting period of 1 hour for all the groups. […] The mice are confronted with a pair of objects consisting of the object encountered during the learning phase and an unknown object. The mice are placed in the chamber in the same way as for the learning session.
This test lasts 5 minutes, during which the time spent exploring each of the 2 objects is measured.
For the learning and recalling sessions, the exploration of an object is counted if the animal orients its nose toward the object, inside a perimeter of 2 cm around said object, or if it touches it with its nose or its feet. If the rat moves around the object or sits on it, these behaviors are not considered to be exploratory.
as §1
The compounds to be tested are administered intraperitoneally, 60 minutes before each of the three sessions of the protocol.
Five experimental groups were formed, receiving, respectively:
During the recalling session, i.e. 1 hour after the learning session, the times spent exploring the two objects, expressed in seconds, are measured. • Similar exploration times with respect to the familiar object and to the new object reflect the fact that the familiar object has been forgotten, and therefore that there is complete abolition of the short-term recall performance levels. • Conversely, a longer exploration time for the new object compared with the familiar object reflects a good short-term memory recall performance level.

Consider `CCN(C)C(=O)Oc1cccc([C@H](C)N(C)C)c1` [rivastigmine], for which, in the assay with rats with no deficit, the “Exploration time, familiar object (recalling session)” value (“Exploration time, familiar object” for short) turned out to be 10.10 ± 1.56 s; the “Exploration time, new object (recalling session)” value (“Exploration time, new object” for short) stood at 9.42 ± 1.86 s; the “Recognition index (new/(new + familiar))” value amounted to 0.48 ± 0.05; the “Discrimination between the familiar object and the new object during the recalling session (in words)” value was “no significant discrimination between the familiar object and the new object”.

In the case of `COc1cc2c(cc1OC)C(=O)C(CC1CCN(Cc3ccccc3)CC1)C2` (stereo not shown) [donepezil], in assay [1], the “Effect on short-term recall performance levels (in words)” value is reported as “do not result in an improvement in performance levels”; the “Exploration time, familiar object” value turned out to be 4.60 ± 0.70 s; the “Exploration time, new object” value was 5.00 ± 0.80 s; the “Recognition index (new/(new + familiar))” value is on record as 0.52 ± 0.05.

Turning to `O=C(O)/C=C/C(=O)O.O=C(Oc1ccc(Br)cc1)N1CCN2CCC1CC2` [4-bromophenyl 1,4-diazabicyclo[3.2.2]nonane-4-carboxylate (2E)-but-2-enedioate], in assay [1], the “Effect on short-term recall performance levels (in words)” value is on record as “do not result in an improvement in performance levels”; the “Exploration time, familiar object” value was found to be 4.30 ± 0.70 s; the “Exploration time, new object” value is 6.30 ± 0.60 s; the “Recognition index (new/(new + familiar))” value worked out at 0.60 ± 0.04. In addition, in the assay with rats with no deficit, the “Exploration time, familiar object” value was 10.47 ± 0.84 s; the “Exploration time, new object” value stood at 11.10 ± 1.44 s; the “Recognition index (new/(new + familiar))” value worked out at 0.50 ± 0.04; the “Discrimination between the familiar object and the new object during the recalling session (in words)” value was “no significant discrimination between the familiar object and the new object”.
